Laboratory results reported in patent US6417222B1, “[2-substituted-5-[3-thienyl)-benzyl]-2- ([2-isopropoxy-5-fluoro]-phenyoxy)-ethyl]-amine derivatives, method for the production and use thereof as medicaments” (Pierre Fabre Medicament, priority 1999, dated 2002).

Assays:
receptors of the D2 type = receptors of the D2 type (Homo sapiens, UniProt P14416); assay: Affinity for D2 receptors by displacement of (3H) YM-09151-2; assay type: binding; conditions: mean of at least 3 experiments, read-out: D2 pKi (converted)
Sequence of receptors of the D2 type (P14416 whole entry): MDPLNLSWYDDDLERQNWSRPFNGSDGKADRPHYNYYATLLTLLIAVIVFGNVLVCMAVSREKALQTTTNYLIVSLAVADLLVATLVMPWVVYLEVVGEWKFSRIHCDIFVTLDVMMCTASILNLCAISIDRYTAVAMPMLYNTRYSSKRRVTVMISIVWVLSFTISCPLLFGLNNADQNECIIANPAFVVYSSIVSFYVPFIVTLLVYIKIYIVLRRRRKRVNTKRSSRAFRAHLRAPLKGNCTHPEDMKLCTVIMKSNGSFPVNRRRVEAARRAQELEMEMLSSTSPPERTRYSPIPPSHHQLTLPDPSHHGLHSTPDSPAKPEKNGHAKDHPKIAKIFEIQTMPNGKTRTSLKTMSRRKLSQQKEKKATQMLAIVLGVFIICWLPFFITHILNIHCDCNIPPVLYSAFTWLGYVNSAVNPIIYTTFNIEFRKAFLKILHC
Experimental: 1—Measurement of the affinity of the compounds of the invention for the D2 receptors.
The affinity of the compounds of the invention for the receptors of the D2 type was determined by measuring the displacement of (^3H) YM-09151-2 (NET-1004 70-87 Ci/mmol), according to the method described in Naunyn-Schimiedeberg's Arch. Pharmacol. Methods, 1985, 329, 333. The pKi values (−log Ki) are given in the form of a mean ±SEM of at least 3 experiments.

[1] = Cataleptogenic power (extrapyramidal side effects); conditions: rat, in vivo; rats, oral administration; read-out: Catalepsy ED50
Excerpt: (§1) 2—Evaluation of the antagonist activity of the D2 receptors and of the cataleptogenic effects of the compounds of the invention in vivo
The test for evaluating the propensity of the products of the invention to cause side effects of extrapyramidal order is based on their cataleptogenic power, measured in rats, according to the method described in Eur. J. Pharmacol. 1996, 313, 25.

D2 receptors = molecular target: T1, D2 receptors (Rattus norvegicus, UniProt P61169); assay: Inhibition of the behavior induced by methylphenidate (antidopaminergic activity in vivo); conditions: rats, oral administration, read-out: Normalization ED50
T1 construct: from tissue; host or cells: whole living rat (central nervous system)
T1 sequence (P61169 whole entry): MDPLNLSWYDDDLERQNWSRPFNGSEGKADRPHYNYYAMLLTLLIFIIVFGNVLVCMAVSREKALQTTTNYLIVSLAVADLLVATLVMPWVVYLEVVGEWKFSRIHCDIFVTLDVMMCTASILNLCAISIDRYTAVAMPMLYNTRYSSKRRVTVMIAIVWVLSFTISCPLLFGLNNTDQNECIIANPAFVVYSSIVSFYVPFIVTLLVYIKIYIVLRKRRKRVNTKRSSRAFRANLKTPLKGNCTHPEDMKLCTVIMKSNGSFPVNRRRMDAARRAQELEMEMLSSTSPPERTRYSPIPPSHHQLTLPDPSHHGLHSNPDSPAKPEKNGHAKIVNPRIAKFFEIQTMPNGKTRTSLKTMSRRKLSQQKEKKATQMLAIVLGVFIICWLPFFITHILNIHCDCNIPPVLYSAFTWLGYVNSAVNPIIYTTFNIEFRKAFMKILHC
Excerpt: as §1

CC(C)Oc1ccc(F)cc1OCCNCc1cccc(-c2ccsc2)c1 [la, [3-(3-Thienyl)benzyl]-[2-([5-fluoro-2-isopropoxy]-phenoxy)ethyl]amine]
Ki (receptors of the D2 type): 0.355 nM | ED50 [1]: > 40 mg/kg | ED50 (D2 receptors): 0.7 mg/kg

Cc1nc2n(c(=O)c1CCN1CCC(c3noc4cc(F)ccc34)CC1)CCCC2 [Risperidone, reference compound]
ED50 (D2 receptors): 6.5 mg/kg
